Measured values reported in publication PMC10506422 (Biomedicine & pharmacotherapy = Biomedecine & …, 2022).

Target: T1, ABCG2 (Homo sapiens, UniProt Q9UNQ0)
T1 sequence (Q9UNQ0 1-655): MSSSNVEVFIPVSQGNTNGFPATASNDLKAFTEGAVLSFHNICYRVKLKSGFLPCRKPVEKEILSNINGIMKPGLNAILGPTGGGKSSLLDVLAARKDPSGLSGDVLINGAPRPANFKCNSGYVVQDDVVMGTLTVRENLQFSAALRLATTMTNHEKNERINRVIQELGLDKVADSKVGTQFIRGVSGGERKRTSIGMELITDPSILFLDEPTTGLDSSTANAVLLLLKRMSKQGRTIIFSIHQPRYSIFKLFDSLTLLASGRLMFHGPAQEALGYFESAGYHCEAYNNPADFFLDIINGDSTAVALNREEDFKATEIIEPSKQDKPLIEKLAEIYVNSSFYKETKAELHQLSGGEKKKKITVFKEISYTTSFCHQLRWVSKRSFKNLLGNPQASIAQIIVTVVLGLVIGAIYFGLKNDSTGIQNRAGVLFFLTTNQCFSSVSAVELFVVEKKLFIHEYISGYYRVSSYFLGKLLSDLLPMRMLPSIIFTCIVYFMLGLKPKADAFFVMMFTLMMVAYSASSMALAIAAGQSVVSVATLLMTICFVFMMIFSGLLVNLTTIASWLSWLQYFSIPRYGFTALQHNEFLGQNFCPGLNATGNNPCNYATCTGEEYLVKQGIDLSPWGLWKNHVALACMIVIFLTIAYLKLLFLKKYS
Experiment: fluorescent substrate efflux/accumulation by flow cytometry
Assay type: cell-based

C=Cc1c(C)c2cc3nc(c4c5[nH]c(cc6nc(cc1[nH]2)C(C)=C6CC)c(C)c5C(=O)[C@@H]4C(=O)OC)[C@@H](CCC(=O)O)[C@@H]3C [pheophorbide A]
fluorescent substrate efflux/accumulation by flow cytometry (1 μM PhA): The intracellular accumulation of pheophorbide A (PhA), a known fluorescent substrate drug of ABCG2, was determined
